Measured values reported in publication doi:10.1101/2020.10.11.335026v1, “Acquisition of a type 3 secretion signal in an housekeeping enzyme shaped glycogen metabolism in Chlamydia” (biorxiv, 2020).

Tests used:
Format in all cases: biochemical
[1] = target: T1, CCA00034 (HIS-CCA00034) (Chlamydia caviae, UniProt Q823R2); assay: reverse reaction to Glc1P by HPAEC-PAD; conditions: 0.33 mg/ml Glc6P, 0.1 mg/mL enzyme, 0.2 mg/mL Glc1,6diP, 10 mM Tris-HCl pH 8.0, 37 °C, 20 min
T1 construct: gene CCA_00344; His-tagged, recombinant from E. coli BL21(DE3), Ni-NTA and size exclusion; tag printed as amino-terminal in Results but C-terminal in Methods; tag not reported cut

[2] = target: T2, CpsG (HIS-CpsG) (Escherichia coli, UniProt P24175); assay: Glc1P conversion with and without cofactor by HPAEC-PAD; conditions: 0.2 mg/mL Glc1,6diP, 0.66 mg/ml Glc1P, 10 mM Tris-HCl pH 8.0, 37 °C, 20 min
T2 construct: gene manB; His-tagged, recombinant from E. coli BL21(DE3), Ni-NTA and size exclusion; tag terminus printed as C-terminal in Methods
T2 sequence (P24175 1-456): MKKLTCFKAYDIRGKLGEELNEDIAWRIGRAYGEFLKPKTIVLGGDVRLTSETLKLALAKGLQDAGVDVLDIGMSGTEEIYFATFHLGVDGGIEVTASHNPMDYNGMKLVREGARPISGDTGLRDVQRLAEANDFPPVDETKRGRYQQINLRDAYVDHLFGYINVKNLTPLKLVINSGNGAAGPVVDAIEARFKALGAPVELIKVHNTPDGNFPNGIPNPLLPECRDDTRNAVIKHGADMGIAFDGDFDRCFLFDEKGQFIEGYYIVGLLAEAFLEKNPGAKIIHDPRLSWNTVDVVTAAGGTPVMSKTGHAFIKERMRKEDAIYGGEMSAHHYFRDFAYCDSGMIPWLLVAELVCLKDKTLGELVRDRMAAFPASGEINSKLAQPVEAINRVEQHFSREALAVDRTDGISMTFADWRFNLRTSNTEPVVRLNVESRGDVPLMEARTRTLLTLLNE

[3] = target: T2, CpsG (HIS-CpsG); assay: conversion to Glc6P by HPAEC-PAD; conditions: 0.66 mg/ml Glc1P, 0.1 mg/mL enzyme, 0.2 mg/mL Glc1,6diP, 10 mM Tris-HCl pH 8.0, 37 °C, 20 min
[4] = target: T1, CCA00034 (HIS-CCA00034); assay: conversion to Glc6P by HPAEC-PAD; conditions: 0.66 mg/ml Glc1P, 0.1 mg/mL enzyme, 0.2 mg/mL Glc1,6diP (not required), 10 mM Tris-HCl pH 8.0, 37 °C, 20 min
[5] = target: T3, CT815 (HIS-CT815) (Chlamydia trachomatis, UniProt B0B944); assay: conversion to Glc6P by HPAEC-PAD; conditions: 0.66 mg/ml Glc1P, 0.1 mg/mL enzyme, 0.2 mg/mL Glc1,6diP, 10 mM Tris-HCl pH 8.0, 37 °C, 20 min
T3 construct: gene glmM; His-tagged, in pET28a, recombinant from E. coli BL21(DE3), Ni-NTA and size exclusion; tag printed as amino-terminal in Results but C-terminal in Methods
T3 sequence (B0B944 whole entry): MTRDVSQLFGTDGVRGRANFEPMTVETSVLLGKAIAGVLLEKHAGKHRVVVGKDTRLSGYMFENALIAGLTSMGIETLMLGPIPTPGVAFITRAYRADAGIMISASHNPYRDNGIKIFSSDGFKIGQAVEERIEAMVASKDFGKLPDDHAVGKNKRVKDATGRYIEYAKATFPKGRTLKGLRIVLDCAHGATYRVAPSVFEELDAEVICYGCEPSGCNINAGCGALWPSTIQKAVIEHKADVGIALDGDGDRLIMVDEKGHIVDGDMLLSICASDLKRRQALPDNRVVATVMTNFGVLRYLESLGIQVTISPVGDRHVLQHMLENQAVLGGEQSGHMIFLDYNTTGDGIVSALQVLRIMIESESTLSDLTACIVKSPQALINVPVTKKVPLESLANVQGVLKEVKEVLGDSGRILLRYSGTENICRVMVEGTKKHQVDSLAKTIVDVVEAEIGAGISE

T1 sequence (Q823R2 entry or part of it): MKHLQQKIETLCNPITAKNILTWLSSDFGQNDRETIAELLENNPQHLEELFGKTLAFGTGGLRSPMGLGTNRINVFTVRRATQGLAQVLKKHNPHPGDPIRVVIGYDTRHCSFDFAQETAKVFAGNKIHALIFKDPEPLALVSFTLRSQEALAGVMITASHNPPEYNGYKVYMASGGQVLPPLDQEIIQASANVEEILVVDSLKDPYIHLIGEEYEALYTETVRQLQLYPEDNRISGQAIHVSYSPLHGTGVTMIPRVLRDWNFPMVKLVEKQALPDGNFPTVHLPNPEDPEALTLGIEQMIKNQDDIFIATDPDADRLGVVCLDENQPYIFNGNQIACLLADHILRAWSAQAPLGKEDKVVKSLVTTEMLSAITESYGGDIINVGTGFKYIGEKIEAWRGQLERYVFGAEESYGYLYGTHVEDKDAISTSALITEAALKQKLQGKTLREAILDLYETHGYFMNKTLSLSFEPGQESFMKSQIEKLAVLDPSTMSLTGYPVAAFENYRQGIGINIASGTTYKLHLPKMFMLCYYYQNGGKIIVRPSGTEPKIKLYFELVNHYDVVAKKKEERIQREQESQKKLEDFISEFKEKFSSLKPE

O=P(O)(O)OC[C@H]1OC(O)[C@H](O)[C@@H](O)[C@@H]1O (some centres unmarked) [Glc6P]
reverse reaction to Glc1P by HPAEC-PAD [1]: very low amounts of Glc1P were detected after incubation with HIS-CCA00034 or HIS-CpsG

O=P(O)(O)OC[C@H]1O[C@H](OP(=O)(O)O)[C@H](O)[C@@H](O)[C@@H]1O [Glc1,6diP]
Glc1P conversion with and without cofactor by HPAEC-PAD [2]: CpsG required the presence of Glc1,6diP for optimal conversion of Glc1P into Glc6P

O=P(O)(O)O[C@H]1O[C@H](CO)[C@@H](O)[C@H](O)[C@H]1O [Glc1P]
conversion to Glc6P by HPAEC-PAD [3]: HIS-CpsG required the presence of Glc1,6diP to convert Glc1P into Glc6P
conversion to Glc6P by HPAEC-PAD [4]: Incubation of Glc1P in the presence of HIS-CCA00034 led to its full conversion into Glc6P
conversion to Glc6P by HPAEC-PAD [5]: only low levels of Glc6P were detected in the presence of HIS-CT815
